Measured values taken from a melting point compilation (Tetko et al.; mined from patent text by program, amines drawn as free bases though some values may be those of a salt).

| melting point [°C] | Structure (SMILES) |
| --- | --- |
| 133 to 134 | CCOC(=O)C1=C(N)N=C(OCC)C(C(=O)O)C1c1ccccc1[N+](=O)[O-] (centres undefined) |
| 172 to 174 | CCCC(Cc1ccc(Cl)cc1)C1(S(=O)(=O)c2ccc(OC)cc2)SC(=O)NC1=O (centres undefined) |
| 84 to 85 | CCOCC(N=O)C(C)(C)Cl (centres undefined) |
| 67 to 68 | CCCC[C@H](NC(=O)[C@H](CC(C)C)NC(=O)OCc1ccc(F)cc1)C(=O)CSCc1ccco1 |
| 80 to 83 | CCCCCCCCCCCC(=O)NCCOCCn1c(CCOC)nc2c(N)nc3ccccc3c21 |
| 120 to 125 | CC1SC(c2cccnc2)N(C2CCCCC2)C1=O (centres undefined) |
| 174 to 175 | CCOC(=O)c1c[nH]c2oc3ccccc3c(=O)c2c1=O |
| > 300 | NC1=Nc2cccc3c(=O)[nH]nc(c23)N1 |
| 109 to 111 | O=C1NC(=O)C(=Cc2ccc(N3CCC4(CC3)OCCO4)c(Br)c2)S1 |
| 174 | NC(Cc1nc2ccccc2nc1CP(=O)(O)O)C(=O)O (centres undefined) |
| 118 to 120 | CCOC(=O)CC1CCCc2cc(O)c(C(=O)c3ccccc3)cc21 (centres undefined) |
| 268 to 269 | Cc1ccnc2nc(NS(=O)(=O)c3ccccc3Cl)nn12 |
| 171 to 173 | CC1(C)OCC2Cc3cc4c(cc3C(c3ccc([N+](=O)[O-])cc3)=NN21)OCO4 (centres undefined) |
| 64 | Nc1cc(CNc2ccccc2C(=O)Nc2cccc(C(F)(F)F)c2)ccn1 |
| 148 | C#CCn1ncc(=O)[nH]c1=O |
| 46 to 54 | CC(CN1C(=O)C2(COc3cc4c(cc32)CCO4)c2ccccc21)OCc1ccccn1 (centres undefined) |
| 137 | O=C(NC(Cc1ccccc1)P(O)O)OCc1ccccc1 (centres undefined) |
| 100 to 101 | COCCOc1cc(C)c(O)c2ccccc12 |
| 217 | CC1=C(CNC(=O)NC(C)C)c2cc(F)ccc2/C1=C\c1ccc(S(C)(=O)=O)cc1 |
| 75 to 78 | COc1ccc(CNc2ccccc2[N+](=O)[O-])cc1 |
| 264 to 265 | O=c1[nH]ncn1N=Cc1cccnc1 |
| 60 to 64 | CCOC(=O)c1cc2occc2nc1C(=O)OCC |
| 225 to 226 | O=C(NCC1CCC(CNS(=O)(=O)c2ccc3ccccc3c2)CC1)C1CCc2ccccc2C1 (centres undefined) |
| 108 to 110 | CCC(Cc1ccccc1)(NC(=O)CN)c1ccccc1 (centres undefined) |
| 242 to 244 | O=C1COc2ccc(C3=Cc4cccnc4SC3c3ccccc3)cc2N1 (centres undefined) |

| melting point [°C] | Structure (SMILES) |
| --- | --- |
| 213 | Cc1ccn2c(-c3ccnc(-c4ccc(OCC(N)=O)cc4)c3)c(-c3cccc(C)n3)nc2c1 |
| 129 to 132 | CC(C)(C)OC(=O)Nc1cc(N2CCC(OC3CCCCO3)CC2)c(-c2ccc(F)cc2)cc1NC(=O)CC(=O)c1cccc(-n2ccnc2)c1 (racemic) |
| 261 | CNC(=O)c1cc2c(nc(C)n2C)c2c1C(=O)CC1(Cc3ccccc3C1)N2 |
| 76.1 | CCOC(=O)c1ccc(OCc2cnccn2)cc1 |
| 196 to 197 | COc1ccc(S(=O)(=O)Nc2cccnc2Nc2ccc(F)cc2)cc1 |
| 178 to 180 | CC(C)(C)OC(=O)N1CCN(c2ccc(NC=O)nc2)CC1 |
| 156 to 159 | COC(=O)COc1ccc2cc(-c3csc(-c4ccccc4)n3)ccc2c1Br |
| > 300 | C#Cc1c(-c2ccc(OC(F)F)c(OC3CC3)c2)[nH]c2cn[nH]c(=O)c12 |
| 141 to 143 | Nc1cc(-n2cc(C(=O)O)c(=O)c3cc(F)c(NC4CC4)c(Cl)c32)c(F)cc1F |
| 131 to 134 | CC(C)c1c(Sc2ccccc2)n(CC2CC=CC2)c(=O)[nH]c1=O |
| 93 to 95 | Cc1ccc(N2CCc3ccccc32)c([N+](=O)[O-])c1 |
| 138 to 142 | COc1ccc2c(OCc3cc(OC)c(F)cc3Br)cccc2c1 |
| 149 | CCOC(=O)C1=C(C)N2CCNC2=C(C(=O)OCC)C1c1cccc(C(=O)OCC)c1 (centres undefined) |
| 155 to 156 | Cc1cc(-c2noc(C3CC3)n2)cc(C)c1OCCCc1cc(O)no1 |
| 117 to 119 | CCOc1nn(-c2ccc(C(F)(F)F)cn2)cc1CCOc1ccc(CCC(=O)O)c(C)c1 |
| 82 to 84 | CCCc1cc(NC(=O)N2CCN(c3cc(OC)cc(OC)c3)CC2)c(OC)nc1C |
| 119 to 121 | CCC(C(=O)N(C)C)n1nc(-c2ccccc2)c(C)c1C (centres undefined) |
| 97 | CCOC(=O)c1cc([N+](=O)[O-])ccc1O |
| 178 to 179 | COc1ccc(-c2ccc(C(=O)O)cc2)cc1OCCCCc1ccccc1 |
| 162 to 165 | COc1c(-c2ccc3cc(NS(C)(=O)=O)ccc3c2)cc(-n2ccc(=O)[nH]c2=O)cc1C(F)(F)C(F)(F)F |
| 181 to 183 | COCn1c(-c2ccncc2)c(C)c(CO)c1-c1ccncc1 |
| 258 to 260 | CC1(C)OC(=O)Nc2ccc(-c3ccc(S(N)(=O)=O)s3)cc21 |
| > 270 | N#CC1=C(C2CCNCC2)Nc2n[nH]cc2C1c1cccc(C#N)c1Br (centres undefined) |
| 144 | CCc1nc(-c2nn(Cc3ccccc3F)c3ccccc23)oc1CO |
| 67 to 72 | COc1ccc2c(c1)[C@@H](O)[C@H](Br)CO2 (relative stereo) |

| melting point [°C] | Structure (SMILES) |
| --- | --- |
| 300 | N[C@H]1CCN(c2cc3c(cc2F)c(=O)c(C(=O)O)cn3-c2c[nH]nn2)C1 |
| 160 | COC(=O)c1ccc(NS(C)(=O)=O)c(C=NO)c1 |
| 317 to 322 | CCc1nc(=O)c(CCC(=O)O)c(C)n1Cc1ccc(-c2ccccc2-c2nnn[nH]2)cc1 |
| 98 to 100 | C[Si](C)(C)CCC1=C(O)C(=O)c2ccccc2C1=O |
| 83 to 85 | COc1cccc(CCNC(=O)N(C)O)c1OC |
| 188 to 190 | O=C(NC(Cc1cccc(Cl)c1)C(=O)N1CCSC1)c1cc2cc(Cl)ccc2[nH]1 (centres undefined) |
| 130 to 132 | CN(Cc1cc2c(=O)c(C(=O)NCc3ccc(Cl)cc3)cn(C)c2o1)CC(O)c1ccccn1 (centres undefined) |
| 258 to 263 | Cc1nc2c3c(ccc2n1C)C(=O)N1C(=O)C(C)(C(C)C)N=C31 (centres undefined) |
| 186 to 187 | O=C(N[C@H](Cc1ccc(C(F)(F)F)cc1)[C@@H](O)c1ccc(F)cc1)c1ccc(Oc2ccccc2)cc1 (racemic) |
| 133 to 135 | COC(=O)c1ccc(C(=O)c2ccccc2)cc1 |
| 150 to 151 | CC(C)(Oc1ccc(CCC(=O)c2ccc(-c3ccc(C(F)(F)F)cc3)s2)cc1F)C(=O)O |
| 164 to 166 | CN(C)c1nc2n(n1)Cc1ccccc1-2 |
| 179 to 180 | O=C1O[C@@H](CO)CN1c1ccc(-n2ccnn2)c(F)c1 |
| 200 to 201 | CC1CCC(C(=O)Nc2ccccc2)=C2NC=C(C(=O)O)C(=O)N21 (centres undefined) |
| 241 to 243 | N#CC1=C2C(=NC1=O)c1c(OCc3cccs3)ccc3cccc2c13 |
| 188 to 189 | O=C(CCl)Nc1ccc(C(=O)N2CCc3cc(S(=O)(=O)n4cc(-c5ccccc5)[nH]c4=O)ccc32)cc1 |
| 179 to 187 | CC1c2cc(OCC(=O)O)c(Cl)c(Cl)c2C(=O)C1(C)Cl (centres undefined) |
| 167 to 168 | O=C1N(Cc2cc3ccccc3o2)c2ccccc2C12COc1cc3c(cc12)OCO3 (centres undefined) |
| 52 to 55 | CCCCc1nc2cnc3cc(C)ccc3c2o1 |
| 113 to 115 | CC(C)(C)OCCCC1(O)c2ccccc2COc2ccccc21 (centres undefined) |
| 235 to 237 | CCOC(=O)c1cc2c3c(c(-c4ccccc4Cl)cc2n1CCCOC)C(=O)NC3=O |
| 104 to 105 | O=S(=O)(Nc1onc(C(F)(F)F)c1Br)c1ccccc1 |
| 49.5 to 51 | COC(=O)Cc1ccc2cc(OC)ncc2c1 |
| 66 to 68 | CCOC(=O)COc1ccc(Br)cc1C(C)=O |
| 234 to 236 | O=C(Nc1ccc(C(=O)N2Cc3ccccc3Cc3ccccc32)cc1)C1CC=CCC1 (centres undefined) |

| melting point [°C] | Structure (SMILES) |
| --- | --- |
| 117 to 118 | CNS(=O)(=O)CC(=O)c1cc(OC)ccc1N |
| 160 to 162 | CCOC(=O)CC(O)CC(O)C=CC(=C(c1ccc(F)cc1)c1ccc(F)cc1)n1nnnc1-c1ccccc1 (centres undefined) |
| 152 to 157 | COc1ccc(C=CC(=O)C(CCC(=O)O)(Cc2ccccc2Cl)c2ccccc2)cc1 (centres undefined) |
| 148 to 149 | CCOC(=O)CC(=O)CC(O)/C=C/c1c(-c2ccccc2)c2ccccc2c(=O)n1C (centres undefined) |
| 91 | Cc1c(Br)sc2cc(CO)ccc12 |
| 99 to 102 | CC1CCCN1CCCN1CCN(CCCN2CCC(F)(F)C2)C1=C(C#N)C#N (centres undefined) |
| 136 to 138 | CC(C)(C)OC(=O)NN[C@@H]1c2cc(C#N)ccc2OC(C)(C)[C@H]1O (relative stereo) |
| 191 to 193 | OCCOc1nccc(-c2c(-c3ccc(F)cc3)ncn2C2CCC(O)CC2)n1 (centres undefined) |
| 119 to 120 | COc1ccc(-c2nn(CC3CCCC3)c(=O)cc2-c2ccncc2)cc1 |
| 86 to 88 | CCOCCn1nc(-c2cc(C(C)(C)C)c(O)c(C(C)(C)C)c2)c2cccnc21 |
| 150 to 152 | CC#Cc1cc(N(C)C)nc(Nc2ccccc2)n1 |
| 134 | CC1(C)NC(=O)Oc2ccc(OCc3ccccc3)cc21 |
| 103 to 106 | COC(=O)c1ccc2cc(C(C)n3ccnc3)ccc2c1 (centres undefined) |
| 168 to 170 | COc1ccc2nc(CN(CCN(Cc3ccc4cc(OC)ccc4n3)Cc3ccc4cc(OC)ccc4n3)Cc3ccc4cc(OC)ccc4n3)ccc2c1 |
| 154 to 156 | Cc1cc(=O)[nH]c(SCc2ccccn2)n1 |
| 157 to 158 | CCOC(=O)CNc1nc(Cl)ccc1NC(=O)c1ccc(Cl)cc1 |
| 360 | O=C(O)c1cc(C(=O)O)cc(P(=O)(O)O)c1 |
| 167 to 168 | O=C(O)CCn1ccn(C2CCc3ccccc3C2)c1=S (centres undefined) |
| 169 to 170 | COc1ccc(C(=O)NCCCCCCCCCCCCNC(=O)c2ccc(OC)cc2)cc1 |
| 140 to 145 | CCC1(CC)C(=O)NC(C)(C)C(C)(C)N1OC(C)(C)C#N |
| 120 to 121 | COC(=O)C(=O)c1cc(Cl)c(OCCOc2ccc3ccccc3c2)c(Cl)c1 |
| 136 to 138 | CN(C)C=Nc1c(Cl)cc(N=Cc2cccc(Br)c2)cc1Cl |

| Structure (SMILES) | melting point [°C] |
| --- | --- |
| CCCCCCc1cc2c(s1)-n1c(C)nnc1CN=C2c1ccc(C)c(C)c1 | 98 to 100 |
| CC1(c2cn(-c3c(Cl)cc(C(F)(F)F)cc3Cl)nc2C#N)CC1(Br)Br (centres undefined) | 133 to 134 |
